This is an account of results in patent US20190327974A1, “SYNERGISTS FOR IMPROVED PESTICIDES” (priority 2017, published 2019).

A word on the inhibition: it is the change of the read-out against control, counted positive when it falls.

Holding throughout (experiment): Protease selectivity panel
What all share (format): biochemical
Holding throughout (conditions): 100 μM compound, n = 2

The target of one test is T1, DPP4 (Homo sapiens, UniProt P27487).
T1 construct: purchased ENZO
Here is the method:
(§1) Test compounds were dissolved in 100% DMSO to make 10 mM stock. Final compound concentration in assay is […]. Compounds were tested in duplicate wells at single concentration and the final concentration of DMSO in all assays was kept at 1%. Five reference compounds, AEBSF, Carfilzomib, Granzyme B Inhibitor II, Dec-RVKR-CMK, and Teneligliptin hydrobromide, were tested in an identical manner with 8 concentration points at 5× dilutions.

For another test, the target named is T2, Kallikrein13 (Homo sapiens, UniProt Q9UKR3).
T2 construct: purchased R&D Systems
T2 sequence (Q9UKR3 26-277 limits assumed): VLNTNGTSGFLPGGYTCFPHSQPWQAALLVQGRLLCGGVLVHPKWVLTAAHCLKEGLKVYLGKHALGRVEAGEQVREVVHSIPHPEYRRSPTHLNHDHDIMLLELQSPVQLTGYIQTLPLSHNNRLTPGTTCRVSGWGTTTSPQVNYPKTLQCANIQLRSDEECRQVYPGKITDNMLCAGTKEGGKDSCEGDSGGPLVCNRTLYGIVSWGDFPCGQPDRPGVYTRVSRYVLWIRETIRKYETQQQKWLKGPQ
On the procedure: as §1

In another test the target is T3, uPA (Homo sapiens, UniProt P00749).
T3 construct: purchased R&D Systems
On the procedure:
as §1

The target in a further test is T4, Factor VII (Homo sapiens, UniProt P08709).
T4 construct: purchased R&D Systems
T4 sequence (P08709 213-466 limits assumed): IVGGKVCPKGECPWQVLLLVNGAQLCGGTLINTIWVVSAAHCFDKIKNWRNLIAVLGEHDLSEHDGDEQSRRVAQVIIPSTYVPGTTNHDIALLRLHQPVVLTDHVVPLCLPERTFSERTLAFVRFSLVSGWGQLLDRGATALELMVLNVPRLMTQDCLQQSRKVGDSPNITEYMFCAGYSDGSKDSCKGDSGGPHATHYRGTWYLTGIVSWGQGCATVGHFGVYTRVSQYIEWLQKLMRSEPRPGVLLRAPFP
T4 sequence (P08709 61-212 partner limits assumed): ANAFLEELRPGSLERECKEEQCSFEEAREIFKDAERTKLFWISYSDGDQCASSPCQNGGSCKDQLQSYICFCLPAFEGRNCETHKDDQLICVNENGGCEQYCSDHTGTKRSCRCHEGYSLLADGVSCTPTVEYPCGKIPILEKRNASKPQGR
T4 sequence (P13726 33-251 partner limits assumed): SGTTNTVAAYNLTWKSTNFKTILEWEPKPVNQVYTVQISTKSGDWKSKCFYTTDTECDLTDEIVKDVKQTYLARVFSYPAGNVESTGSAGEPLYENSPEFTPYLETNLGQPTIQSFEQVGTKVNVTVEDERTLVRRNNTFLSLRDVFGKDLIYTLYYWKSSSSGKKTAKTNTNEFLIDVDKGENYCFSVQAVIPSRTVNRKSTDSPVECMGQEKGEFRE
On the procedure: as §1

A further test concerns the target T5, PSMB7 (Homo sapiens, UniProt Q99436).
T5 construct: purchased BOSTON-BIOCHEM
On the procedure:
as §1

Another test concerns the target T6, GranzymeA (Homo sapiens, UniProt P12544).
T6 construct: purchased ENZO
T6 sequence (P12544 29-262): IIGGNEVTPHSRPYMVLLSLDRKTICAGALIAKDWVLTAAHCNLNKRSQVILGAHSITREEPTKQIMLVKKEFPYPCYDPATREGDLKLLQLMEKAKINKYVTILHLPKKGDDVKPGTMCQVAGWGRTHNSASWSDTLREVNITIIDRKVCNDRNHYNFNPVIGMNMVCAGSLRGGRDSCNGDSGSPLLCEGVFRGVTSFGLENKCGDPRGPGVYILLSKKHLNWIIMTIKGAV
On the procedure: as §1

In another test the target is T7, DPP8 (Homo sapiens, UniProt Q6V1X1).
T7 construct: purchased ENZO
T7 sequence (Q6V1X1 whole entry): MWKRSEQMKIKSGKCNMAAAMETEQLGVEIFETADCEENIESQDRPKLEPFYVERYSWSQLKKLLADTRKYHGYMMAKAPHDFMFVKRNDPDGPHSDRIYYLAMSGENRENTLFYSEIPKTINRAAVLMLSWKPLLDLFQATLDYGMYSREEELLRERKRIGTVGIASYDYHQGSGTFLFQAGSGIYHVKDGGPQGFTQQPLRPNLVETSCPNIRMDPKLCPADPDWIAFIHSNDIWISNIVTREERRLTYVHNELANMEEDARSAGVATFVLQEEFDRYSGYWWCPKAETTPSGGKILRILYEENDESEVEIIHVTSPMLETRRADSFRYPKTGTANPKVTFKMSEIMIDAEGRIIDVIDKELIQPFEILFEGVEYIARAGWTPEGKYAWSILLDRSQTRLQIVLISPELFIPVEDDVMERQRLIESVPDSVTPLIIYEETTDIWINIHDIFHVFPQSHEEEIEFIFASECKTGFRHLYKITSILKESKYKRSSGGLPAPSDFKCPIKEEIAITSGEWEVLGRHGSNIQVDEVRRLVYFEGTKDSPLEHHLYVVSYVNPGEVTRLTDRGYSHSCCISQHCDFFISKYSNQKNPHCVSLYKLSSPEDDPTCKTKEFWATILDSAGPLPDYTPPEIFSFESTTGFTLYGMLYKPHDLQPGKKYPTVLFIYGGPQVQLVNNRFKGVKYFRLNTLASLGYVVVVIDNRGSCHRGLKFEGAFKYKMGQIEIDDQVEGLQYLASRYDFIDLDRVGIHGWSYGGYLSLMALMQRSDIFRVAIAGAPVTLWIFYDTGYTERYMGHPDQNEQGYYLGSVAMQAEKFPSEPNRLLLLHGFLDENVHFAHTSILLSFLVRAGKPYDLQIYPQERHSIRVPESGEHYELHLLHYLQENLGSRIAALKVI
On the procedure:
as §1

The next test concerns the target T8, DPP9 (Homo sapiens, UniProt Q86TI2).
T8 construct: purchased ENZO
Here is the method:
as §1

The target in a further test is T9, Thrombin (Homo sapiens, UniProt P00734).
T9 construct: Thrombin; purchased R&D Systems
On the procedure: as §1

Another test deals with T10, Plasmin (Homo sapiens, UniProt P00747).
T10 construct: purchased R&D Systems
T10 sequence (P00747 581-810 limits assumed): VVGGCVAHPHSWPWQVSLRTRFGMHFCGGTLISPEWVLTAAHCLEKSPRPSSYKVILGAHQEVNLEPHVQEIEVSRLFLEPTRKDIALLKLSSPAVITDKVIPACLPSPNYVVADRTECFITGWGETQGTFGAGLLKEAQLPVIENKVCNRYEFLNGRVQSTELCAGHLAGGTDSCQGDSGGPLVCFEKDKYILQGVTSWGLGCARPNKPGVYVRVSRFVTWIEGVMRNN
T10 sequence (P00747 97-580 partner limits assumed): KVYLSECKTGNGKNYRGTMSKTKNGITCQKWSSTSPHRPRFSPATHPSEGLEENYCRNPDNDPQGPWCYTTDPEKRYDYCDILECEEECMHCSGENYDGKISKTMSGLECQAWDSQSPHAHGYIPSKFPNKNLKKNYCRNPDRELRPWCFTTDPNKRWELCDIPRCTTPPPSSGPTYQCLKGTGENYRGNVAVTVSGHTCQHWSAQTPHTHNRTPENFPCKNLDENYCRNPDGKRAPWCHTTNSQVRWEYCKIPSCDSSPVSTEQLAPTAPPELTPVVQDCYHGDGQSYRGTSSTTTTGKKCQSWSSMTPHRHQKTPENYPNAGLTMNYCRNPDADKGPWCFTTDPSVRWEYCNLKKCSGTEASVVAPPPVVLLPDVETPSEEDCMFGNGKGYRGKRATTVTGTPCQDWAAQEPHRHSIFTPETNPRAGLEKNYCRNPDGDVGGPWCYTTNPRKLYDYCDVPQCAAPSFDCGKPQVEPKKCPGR
On the procedure: as §1

The target of a further test is T11, Plasma-Kallikrein (Homo sapiens, UniProt P03952).
T11 construct: purchased R&D Systems
On the procedure:
as §1

The next test deals with T12, HTRA2 (Homo sapiens, UniProt O43464).
T12 construct: purchased R&D Systems
T12 sequence (O43464 134-458): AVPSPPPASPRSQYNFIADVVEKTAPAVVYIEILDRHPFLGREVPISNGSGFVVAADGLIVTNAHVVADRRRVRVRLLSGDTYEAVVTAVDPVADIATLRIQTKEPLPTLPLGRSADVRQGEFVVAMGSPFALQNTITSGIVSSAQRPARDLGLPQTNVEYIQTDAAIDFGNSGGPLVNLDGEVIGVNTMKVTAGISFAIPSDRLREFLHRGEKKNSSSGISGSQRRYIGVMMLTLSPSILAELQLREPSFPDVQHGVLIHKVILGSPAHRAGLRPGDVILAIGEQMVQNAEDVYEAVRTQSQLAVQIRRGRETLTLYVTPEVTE
Here is the method: as §1

For the next test, the target named is T13, Furin (Homo sapiens, UniProt P09958).
T13 construct: purchased R&D Systems
Here is the method:
as §1

The target of another test is T14, Spinesin (Homo sapiens, UniProt Q9H3S3).
T14 construct: purchased R&D Systems
T14 sequence (Q9H3S3 218-457 limits assumed): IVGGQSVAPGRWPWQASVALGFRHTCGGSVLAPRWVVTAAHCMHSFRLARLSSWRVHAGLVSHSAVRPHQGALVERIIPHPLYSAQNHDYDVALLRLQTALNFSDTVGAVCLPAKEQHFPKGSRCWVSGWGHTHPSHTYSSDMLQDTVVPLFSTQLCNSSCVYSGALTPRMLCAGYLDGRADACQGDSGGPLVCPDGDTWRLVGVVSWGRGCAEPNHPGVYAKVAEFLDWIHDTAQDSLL
Here is the method: as §1

For another test, the target named is T15, PSMB10 (Homo sapiens, UniProt P40306).
T15 construct: purchased BOSTON-BIOCHEM
On the procedure:
as §1

The next test deals with T16, tPA (Homo sapiens, UniProt P00750).
T16 construct: purchased R&D Systems
T16 sequence (P00750 36-562): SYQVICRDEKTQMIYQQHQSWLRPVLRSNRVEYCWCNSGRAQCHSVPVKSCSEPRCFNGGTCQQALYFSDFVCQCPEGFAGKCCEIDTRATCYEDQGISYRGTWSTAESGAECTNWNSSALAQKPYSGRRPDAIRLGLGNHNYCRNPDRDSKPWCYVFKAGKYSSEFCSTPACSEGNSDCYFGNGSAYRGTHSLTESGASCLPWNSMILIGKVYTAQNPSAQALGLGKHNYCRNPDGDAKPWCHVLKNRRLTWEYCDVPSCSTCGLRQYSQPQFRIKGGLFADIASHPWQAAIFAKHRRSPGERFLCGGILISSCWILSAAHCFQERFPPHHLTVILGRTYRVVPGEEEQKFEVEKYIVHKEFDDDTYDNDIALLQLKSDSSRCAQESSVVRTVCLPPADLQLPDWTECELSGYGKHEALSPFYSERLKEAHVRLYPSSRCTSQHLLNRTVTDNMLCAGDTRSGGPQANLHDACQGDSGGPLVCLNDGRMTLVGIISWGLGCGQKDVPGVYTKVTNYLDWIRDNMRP
On the procedure: as §1

In the next test the target is T17, PSMB9 (Homo sapiens, UniProt P28065).
T17 construct: purchased BOSTON-BIOCHEM
Here is the method:
as §1

The target of the next test is T18, Matriptase (Homo sapiens, UniProt Q9Y5Y6).
T18 construct: purchased R&D Systems
T18 sequence (Q9Y5Y6 1-855): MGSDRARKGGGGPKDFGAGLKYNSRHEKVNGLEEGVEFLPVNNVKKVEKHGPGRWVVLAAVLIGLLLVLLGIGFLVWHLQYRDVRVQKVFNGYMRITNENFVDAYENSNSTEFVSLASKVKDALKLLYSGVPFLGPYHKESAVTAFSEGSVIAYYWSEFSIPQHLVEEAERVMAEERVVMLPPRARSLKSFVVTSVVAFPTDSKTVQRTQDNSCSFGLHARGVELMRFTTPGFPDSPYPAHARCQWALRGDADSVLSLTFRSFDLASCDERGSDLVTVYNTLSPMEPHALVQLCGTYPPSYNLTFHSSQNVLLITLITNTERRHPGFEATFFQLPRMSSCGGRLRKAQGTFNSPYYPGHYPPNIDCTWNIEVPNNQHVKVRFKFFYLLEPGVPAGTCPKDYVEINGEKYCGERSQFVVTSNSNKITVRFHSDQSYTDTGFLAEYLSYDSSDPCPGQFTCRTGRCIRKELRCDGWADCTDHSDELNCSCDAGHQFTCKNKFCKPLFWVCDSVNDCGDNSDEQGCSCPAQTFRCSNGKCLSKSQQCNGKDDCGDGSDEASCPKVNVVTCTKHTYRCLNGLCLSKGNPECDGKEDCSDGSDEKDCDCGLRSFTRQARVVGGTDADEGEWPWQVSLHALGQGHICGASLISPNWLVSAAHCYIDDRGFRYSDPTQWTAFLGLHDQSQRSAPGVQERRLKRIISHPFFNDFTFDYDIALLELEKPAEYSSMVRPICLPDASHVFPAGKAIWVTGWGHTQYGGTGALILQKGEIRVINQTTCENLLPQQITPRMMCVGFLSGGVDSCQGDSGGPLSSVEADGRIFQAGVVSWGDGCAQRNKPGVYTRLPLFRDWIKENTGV
Here is the method: as §1

T8 sequence (Q86TI2 whole entry): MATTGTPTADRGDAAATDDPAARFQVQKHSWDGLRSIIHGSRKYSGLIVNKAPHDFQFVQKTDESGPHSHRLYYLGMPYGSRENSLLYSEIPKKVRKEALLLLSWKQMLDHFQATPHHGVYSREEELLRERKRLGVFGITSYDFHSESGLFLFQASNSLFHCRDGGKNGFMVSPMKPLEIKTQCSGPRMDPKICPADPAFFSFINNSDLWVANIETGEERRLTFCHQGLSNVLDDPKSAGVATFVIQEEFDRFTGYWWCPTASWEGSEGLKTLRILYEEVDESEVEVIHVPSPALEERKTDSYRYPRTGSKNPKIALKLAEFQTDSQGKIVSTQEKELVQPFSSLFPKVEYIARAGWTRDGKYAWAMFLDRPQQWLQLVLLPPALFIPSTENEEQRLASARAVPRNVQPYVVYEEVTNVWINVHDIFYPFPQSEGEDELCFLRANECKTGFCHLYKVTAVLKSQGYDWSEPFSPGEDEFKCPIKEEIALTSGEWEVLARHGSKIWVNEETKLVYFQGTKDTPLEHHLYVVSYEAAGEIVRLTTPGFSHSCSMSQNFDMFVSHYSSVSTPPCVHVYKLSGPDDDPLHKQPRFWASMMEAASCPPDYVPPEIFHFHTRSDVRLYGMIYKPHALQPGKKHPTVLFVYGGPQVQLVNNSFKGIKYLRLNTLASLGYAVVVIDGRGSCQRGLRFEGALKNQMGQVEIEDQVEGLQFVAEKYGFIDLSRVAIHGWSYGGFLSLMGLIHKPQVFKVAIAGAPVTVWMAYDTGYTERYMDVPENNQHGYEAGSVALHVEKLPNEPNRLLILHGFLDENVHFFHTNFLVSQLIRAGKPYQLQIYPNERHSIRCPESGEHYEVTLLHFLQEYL
T1 sequence (P27487 whole entry): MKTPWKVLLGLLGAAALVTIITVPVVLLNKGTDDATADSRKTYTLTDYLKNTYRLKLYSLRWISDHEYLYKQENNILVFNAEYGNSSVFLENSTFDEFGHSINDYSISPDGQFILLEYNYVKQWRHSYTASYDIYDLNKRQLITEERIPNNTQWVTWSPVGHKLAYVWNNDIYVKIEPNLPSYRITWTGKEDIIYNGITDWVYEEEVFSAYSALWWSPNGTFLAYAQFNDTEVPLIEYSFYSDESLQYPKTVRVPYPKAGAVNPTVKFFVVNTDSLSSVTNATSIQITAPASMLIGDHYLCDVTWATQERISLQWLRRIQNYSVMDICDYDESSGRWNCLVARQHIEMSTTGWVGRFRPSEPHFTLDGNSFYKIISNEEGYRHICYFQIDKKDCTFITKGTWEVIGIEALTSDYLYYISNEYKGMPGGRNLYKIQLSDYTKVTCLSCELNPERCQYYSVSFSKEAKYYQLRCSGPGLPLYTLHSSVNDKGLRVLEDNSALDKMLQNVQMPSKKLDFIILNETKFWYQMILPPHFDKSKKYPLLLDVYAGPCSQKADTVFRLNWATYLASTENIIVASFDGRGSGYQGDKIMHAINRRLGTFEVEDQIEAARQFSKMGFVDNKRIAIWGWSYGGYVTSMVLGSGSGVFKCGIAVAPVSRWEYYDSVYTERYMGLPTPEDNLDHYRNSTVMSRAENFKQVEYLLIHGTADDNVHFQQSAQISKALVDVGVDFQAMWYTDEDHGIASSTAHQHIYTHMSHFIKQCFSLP

In the case of `OB(O)c1cc(Br)cc(OCc2ccccc2)c1` [Compound 3.9], the inhibition at 100 µM is 2% at DPP4; -1% on Kallikrein13; 40% against uPA; 26% on Factor VII; 70% against PSMB7; 23% against GranzymeA. In addition, the inhibition at 100 µM worked out at 53% against DPP8; 75% at DPP9; 54% against Thrombin; 16% against Plasmin; 41% on Plasma-Kallikrein; 28% against HTRA2. The inhibition at 100 µM against Furin was -2%; against Spinesin it was 13%; against PSMB10 it was 78%; against tPA it was 40%; at PSMB9, 50%; against Matriptase, 5%.

Take `OB(O)c1cc(Br)cc(Oc2ccccc2)c1` [Compound 3.10, 3-Bromo-5-phenoxyfenylboronic acid]: the inhibition at 100 µM at DPP4 is -3%; on Kallikrein13, 0%; against uPA, 32%; against Factor VII it was 53%; against PSMB7, 48%; at GranzymeA, 12%. The inhibition at 100 µM on DPP8 is 37%; against DPP9 it was 71%; on Thrombin it was 58%; on Plasmin it was -2%; on Plasma-Kallikrein it was 64%; at HTRA2 it was 2%. Moreover, the inhibition at 100 µM against Furin is -5%; against Spinesin, 34%; at PSMB10 it was 45%; against tPA, 19%; against PSMB9, 15%; at Matriptase, 4%.

As for `OB(O)c1cc(Br)cc(N2CCCC2)c1` [Compound 3], the inhibition at 100 µM amounted to 6% on DPP4; 3% against Kallikrein13; 67% at uPA; 15% at Factor VII; 39% against PSMB7; 12% against GranzymeA. The inhibition at 100 µM at DPP8 was found to be 42%; at DPP9, 45%; against Thrombin, 32%; against Plasmin, 13%; at Plasma-Kallikrein, 6%; on HTRA2, 23%. Moreover, the inhibition at 100 µM against Furin is 1%; against Spinesin, 26%; on PSMB10, 43%; against tPA, 26%; against PSMB9, 12%; against Matriptase, -1%.
